Our source for the Kd values is paper PMC7352223, “Mapping of CaM, S100A1 and PIP2-Binding Epitopes in the Intracellular N- and C-Termini of TRPM4” (International Journal of Molecular Sciences, 2020).

Molecules are shown by their SMILES. Residues, ends and D or L forms follow the SMILES beside them.

The experiment deals with T1, calmodulin (CaM) (Homo sapiens, UniProt P0DP23).
T1 construct: made in house
In words: Steady-state fluorescence anisotropy (FA) binding assay, peptide titrated with CaM. Particulars: carboxyfluorescein-labelled peptide titrated with CaM, 25 mM Tris-HCl pH 7.5, 250 mM NaCl, 200 µM CaCl2, 25 °C, value (SD), anisotropy measured six times per concentration, read-out: KD of peptide/CaM complex, CaM/Ca2+ KD (SD). How it is done: First, we studied whether M4nt_WT and M4ct_WT are able to bind CaM and S100A1 at all. The carboxyfluorescein-labelled M4nt_WT and M4ct_WT peptides were titrated with increasing amounts of CaM or S100A1, and FA was measured for each point of titration. The FA increased due to a slower rotational diffusion of the formed complexes, and the fraction bound (Fb) of M4nt_WT and M4ct_WT could be calculated (Figure 2A, Figure 3A, Figure 4A, Figure 5A). Since the specific interactions of M4nt_WT and M4ct_WT with CaM/S100A1 were calcium-dependent, all samples were measured in the presence of 200-μM CaCl2. The fluorescence lifetimes τi of all peptides and their complexes (and all the following characterised peptides/complexes) were constant during all the experiments, with the values close to 3 ns. […] Overall, the FA results indicated the high affinity of M4nt_WT and M4ct_WT peptides to CaM and S100A1. Both M4nt_WT and M4ct_WT peptides thus seemed to represent potential binding epitopes on TRPM4.
The experiments were performed on a K2 spectrofluorometer (ISS, Inc., Champaign, IL, USA) at 25 °C in a cuvette with a 2-mm path length. […] Fluorescence was excited at 490 nm, and polarised emission components III and I⊥, required for the construction of the emission anisotropy, were acquired and averaged quasi-simultaneously at 525 nm by repetitive switching of the emission polariser. […] The anisotropy values r were calculated from the fluorescence intensities in the parallel (III) and perpendicular (I⊥) directions according to the relationship r = (III − GI⊥)/(III + 2GI⊥), where G is a factor correcting for different transmittance of the detection channel for the two measured polarisations (III and I⊥). The G factor was determined in a separate experiment. The measurements were repeated six times for each ligand concentration; the mean anisotropy value was calculated and used for further analysis. […] The Q was evaluated for every binding experiment from the ratio of the fluorescence lifetimes of the bound to the free M4nt, M4ct or PIP2: Q = τbound/τfree. […]

With `CC(C)C[C@H](NC(=O)[C@@H]1CCCN1C(=O)[C@H](CS)NC(=O)[C@H](C)NC(=O)[C@H](C)NC(=O)[C@H](CC(C)C)NC(=O)[C@H](CC(C)C)NC(=O)[C@H](CC(C)C)NC(=O)[C@H](C)NC(=O)[C@H](C)NC(=O)[C@H](C)NC(=O)[C@H](CCCNC(=N)N)NC(=O)[C@@H](NC(=O)[C@H](CCC(=O)O)NC(=O)[C@H](CO)NC(=O)[C@H](CO)NC(=O)[C@H](CCCNC(=N)N)NC(=O)[C@H](Cc1ccc(O)cc1)NC(=O)[C@H](CS)NC(=O)[C@H](CCC(=O)O)NC(=O)CNC(=O)[C@@H](N)Cc1ccccc1)C(C)C)C(=O)O` [M4nt_R640A/R644A/R645A] (H-FGECYRSSEVRAAALLLAACPL-OH), the Kd turned out to be 80 µM.
As for `CC(C)C[C@H](NC(=O)[C@@H]1CCCN1C(=O)[C@H](CS)NC(=O)[C@H](CCCNC(=N)N)NC(=O)[C@H](CCCNC(=N)N)NC(=O)[C@H](CC(C)C)NC(=O)[C@H](CC(C)C)NC(=O)[C@H](CC(C)C)NC(=O)[C@H](CCCNC(=N)N)NC(=O)[C@H](C)NC(=O)[C@H](C)NC(=O)[C@H](CCCNC(=N)N)NC(=O)[C@@H](NC(=O)[C@H](CCC(=O)O)NC(=O)[C@H](CO)NC(=O)[C@H](CO)NC(=O)[C@H](C)NC(=O)[C@H](Cc1ccc(O)cc1)NC(=O)[C@H](CS)NC(=O)[C@H](CCC(=O)O)NC(=O)CNC(=O)[C@@H](N)Cc1ccccc1)C(C)C)C(=O)O` [M4nt_R632A] (H-FGECYASSEVRAARLLLRRCPL-OH), the figure is 27.2 µM; as for `CC(C)C[C@H](NC(=O)[C@@H]1CCCN1C(=O)[C@H](CS)NC(=O)[C@H](CCCNC(=N)N)NC(=O)[C@H](CCCNC(=N)N)NC(=O)[C@H](CC(C)C)NC(=O)[C@H](CC(C)C)NC(=O)[C@H](CC(C)C)NC(=O)[C@H](C)NC(=O)[C@H](C)NC(=O)[C@H](C)NC(=O)[C@H](CCCNC(=N)N)NC(=O)[C@@H](NC(=O)[C@H](CCC(=O)O)NC(=O)[C@H](CO)NC(=O)[C@H](CO)NC(=O)[C@H](CCCNC(=N)N)NC(=O)[C@H](Cc1ccc(O)cc1)NC(=O)[C@H](CS)NC(=O)[C@H](CCC(=O)O)NC(=O)CNC(=O)[C@@H](N)Cc1ccccc1)C(C)C)C(=O)O` [M4nt_R640A] (H-FGECYRSSEVRAAALLLRRCPL-OH), 17 µM.
